In patent US4427668A, “26-Hydroxycholesterol and derivatives and analogs thereof in regulation of cholesterol accumulation in body tissue” (New York University, priority 1982, dated 1984):

Assays:
HMG-CoA reductase [1] = details: 2.5 μM, 5 hours; Chang et al, J. Biol. Chem. 256:6304 (1981); cited from earlier work
HMG-CoA reductase [2] = experiment: HMG-CoA reductase activity in Chinese hamster ovary (CHO-K1) cell culture, as mevalonate formed; assay type: cell-based; details: CHO-K1 cells
Experimental: The effect of 26-hydroxycholesterol on HMG-CoA reductase activity was determined using the procedures of Chang et al, J. Biol. Chem. 256:6304 (1981). Chinese hamster ovary cells, CHO-Kl cells (also referred to as wild type) were obtained from the American Type Culture Collection and grown in Falcon flasks on Ham's F-12 media containing 10% fetal calf serum. Approximately 21/2 days after cells were removed from the stock flask cultures and seeded into petri dishes (60 mm), each containing 0.03×10^6 cells, they were rinsed with phosphate-buffered saline (PBS) and then grown in F-12 media containing 10% delipidated fetal calf serum for 48 hours with one change of media. Following this, either fresh media (still with delipidated calf serum) or fresh media containing 0.14% DMSO alone or 26-hydroxycholesterol was added and the cells incubated for varying periods of time. Our final concentration of DMSO was less than Chang (0.14% vs. 0.3%) and comparison of HMG-CoA reductase activity at 5 hours with media not containing DMSO gives the same or slightly higher (not significant) values. Under these conditions, over 50% inhibition has been obtained using the 0.25 μM concentration of 26-hydroxycholesterol and incubating for 5 hours. Not only is the mean highly significant but none of the individual control flasks overlap with the individual flasks containing 26-hydroxycholesterol. Using a concentration 10 X greater (2.5 μM) of 25-hydroxycholesterol, Chang reported 80% inhibition at 5 hours. Table 1 below sets forth average results of this experiment when carried out on a single day. […] HMG-CoA reductase activity was determined using the double-label technique of Pitot et al, J. Lipid Res. 12:512 (1971) and the thin-layer separation of Shapiro et al, Anal. Biochem. 31:383 (1969). […] The mevalonlactone is separated by thin-layer chromatography and the ^14 C/^3 H ratio determined from which the total amount of ^14 C can be calculated (corrected for ^3 H recovered) and expressed per mg of cytosolic protein by the Lowry method.

Compound	inhibition of HMG-CoA reductase activity reported by Chang (HMG-CoA reductase [1])	% Inhibition of HMG-CoA reductase activity (HMG-CoA reductase [2]; 0.25 μM in 0.14% DMSO, 5 hours incubation, average of a single day)	HmG Co-A Reductase Activity (as mevalonate formed) (HMG-CoA reductase [2]; 0.25 μM in 0.14% DMSO, 5 hours incubation, DMSO control 0.048)	inhibition of HMG-CoA reductase activity (HMG-CoA reductase [2]; 0.25 μM, incubating for 5 hours)
C[C@H](CCCC(C)(C)O)[C@H]1CC[C@H]2[C@@H]3CC=C4C[C@@H](O)CC[C@]4(C)[C@H]3CC[C@]12C [25-hydroxycholesterol]	80%			
C[C@@H](CO)CCC[C@@H](C)[C@H]1CC[C@H]2[C@@H]3CC=C4C[C@@H](O)CC[C@]4(C)[C@H]3CC[C@]12C [26-hydroxycholesterol]		65%	0.017 nMol/min/mg protein	over 50%
